Data: patent US20260191968A1, “PROTAC DEGRADERS OF MLLT1 AND/OR MLLT3” (DARK BLUE THERAPEUTICS LTD, priority 2024, published 2026)

Legend:
[1] = target: T1, MLLT1 (Homo sapiens, UniProt Q03111); test: MLLT1 degradation assay in MV4-11 cells (JESS chemiluminescent detection), three concentrations, 24 h; format: cell-based; conditions: with respect to DMSO control
T1 construct: host or cells: MV4-11
T1 sequence (Q03111 1-559): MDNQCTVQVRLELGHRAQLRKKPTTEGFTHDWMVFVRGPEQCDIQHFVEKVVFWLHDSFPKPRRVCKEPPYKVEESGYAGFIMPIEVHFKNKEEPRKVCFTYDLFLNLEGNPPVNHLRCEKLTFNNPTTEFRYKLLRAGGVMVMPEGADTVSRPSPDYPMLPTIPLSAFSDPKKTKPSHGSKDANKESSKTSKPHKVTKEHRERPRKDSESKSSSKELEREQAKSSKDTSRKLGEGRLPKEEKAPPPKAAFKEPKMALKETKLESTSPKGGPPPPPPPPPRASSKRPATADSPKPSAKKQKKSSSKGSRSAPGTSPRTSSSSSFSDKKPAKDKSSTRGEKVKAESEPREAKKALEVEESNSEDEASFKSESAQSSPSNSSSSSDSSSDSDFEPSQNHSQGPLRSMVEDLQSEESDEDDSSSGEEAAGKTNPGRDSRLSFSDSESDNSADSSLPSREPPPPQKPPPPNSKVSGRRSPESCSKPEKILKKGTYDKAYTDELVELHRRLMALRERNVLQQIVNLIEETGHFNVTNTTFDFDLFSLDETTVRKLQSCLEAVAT
How it was run: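 MV4-11 cells treated 24 h at 37° C, 5% CO2 with 1000, 100 and 10 nM compound (0.1% DMSO final). MLLT1 quantified by automated capillary chemiluminescent immunodetection; band peak area expressed as % degradation relative to DMSO control.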

[2] = system: MV4-11 cells; test: MV4-11 cellular proliferative assay, Assay Format B (CTG 2.0, 168 h); format: cell-based; conditions: Homo sapiens, 168 h (7 days), CTG 2.0, read-out: IC50 (MV4-11 cellular proliferative assay, Assay format B)
How it was run: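 MV4-11 cells seeded overnight in IMDM + 10% FBS, then exposed to 10-point, 3-fold dilutions from 1 uM or 100 nM top concentration (0.3% DMSO final) for 168 h at 37 °C. CTG 2.0 luminescence read; % viability vs DMSO control fitted by four-parameter logistic regression.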

Compound | MLLT1% Degradation @ 0.01 μM [1] | MLLT1% Degradation @ 0.1 μM [1] | MLLT1% Degradation @ 1 μM [1] | IC50 [2]
CN1CCC[C@@H]1c1cc2cnc(NC(=O)c3ccc(OC4CCN(CC5CCN(c6cccc7c6CN(C6CCC(=O)NC6=O)C7=O)CC5)CC4)nc3)cc2[nH]1 (stereo partly drawn) [Example 125, 6-((1-((1-(2-(2,6-dioxopiperidin-3-yl)-1-oxoisoindolin-4-yl)piperidin-4-yl)methyl)piperidin-4-yl)oxy)-N-(2-((R)-1-methylpyrrolidin-2-yl)-1H-pyrrolo[3,2-c]pyridin-6-yl)nicotinamide] | A (Category A: A ≥ 75% degradation) | A (Category A: A ≥ 75% degradation) | A (Category A: A ≥ 75% degradation) | ≤ 0.1 µM
CN1CCC[C@@H]1c1cc2cnc(NC(=O)c3ccc(N4CCN(Cc5ccc(-c6cccc7c6CN(C6CCC(=O)NC6=O)C7=O)cc5)CC4)cc3)cc2[nH]1 (stereo partly drawn) [Example 98, 4-(4-(4-(2-(2,6-dioxopiperidin-3-yl)-1-oxoisoindolin-4-yl)benzyl)piperazin-1-yl)-N-(2-((R)-1-methylpyrrolidin-2-yl)-1H-pyrrolo[3,2-c]pyridin-6-yl)benzamide] | A (Category A: A ≥ 75% degradation) | A (Category A: A ≥ 75% degradation) | A (Category A: A ≥ 75% degradation) | ≤ 0.1 µM
CN1CCC[C@@H]1c1cc2cnc(NC(=O)c3ccc(OC4CCN(CC5CCN(c6cccc7c6CN(C6CCC(=O)NC6=O)C7=O)CC5)CC4)cc3)cc2[nH]1 (stereo in doubt) [Example 122, 4-((1-((1-(2-((rel-S)-2,6-dioxopiperidin-3-yl)-1-oxoisoindolin-4-yl)piperidin-4-yl)methyl)piperidin-4-yl)oxy)-N-(2-((R)-1-methylpyrrolidin-2-yl)-1H-pyrrolo[3,2-c]pyridin-6-yl)benzamide] | A (Category A: A ≥ 75% degradation) | A (Category A: A ≥ 75% degradation) | A (Category A: A ≥ 75% degradation) | ≤ 0.1 µM
CN1CCC[C@@H]1c1cc2cnc(NC(=O)c3ccc(OCCCC4CCN(c5cccc6c5CN(C5CCC(=O)NC5=O)C6=O)CC4)cc3F)cc2[nH]1 (stereo partly drawn) [Example 209, 4-(3-(1-(2-(2,6-dioxopiperidin-3-yl)-1-oxoisoindolin-4-yl)piperidin-4-yl)propoxy)-2-fluoro-N-(2-((R)-1-methylpyrrolidin-2-yl)-1H-pyrrolo[3,2-c]pyridin-6-yl)benzamide] | A (Category A: A ≥ 75% degradation) | A (Category A: A ≥ 75% degradation) | A (Category A: A ≥ 75% degradation) | ≤ 0.1 µM
CN(CCC#Cc1cccc2c1CN(C1CCC(=O)NC1=O)C2=O)c1ccc(C(=O)Nc2cc3[nH]c([C@H]4CCCN4C)cc3cn2)cc1 (stereo partly drawn) [Example 87, 4-((4-(2-(2,6-dioxopiperidin-3-yl)-1-oxoisoindolin-4-yl)but-3-yn-1-yl)(methyl)amino)-N-(2-((R)-1-methylpyrrolidin-2-yl)-1H-pyrrolo[3,2-c]pyridin-6-yl)benzamide] | A (Category A: A ≥ 75% degradation) | A (Category A: A ≥ 75% degradation) | B (Category B: 50% ≤ B < 75% degradation) | ≤ 0.1 µM
CN1CCC[C@@H]1c1cc2cnc(NC(=O)c3ccc(OCCN4CCC5(CC4)CCN(c4cccc6c4CN(C4CCC(=O)NC4=O)C6=O)CC5)cc3)cc2[nH]1 (stereo partly drawn) [Example 165, 4-(2-(9-(2-(2,6-dioxopiperidin-3-yl)-1-oxoisoindolin-4-yl)-3,9-diazaspiro[5.5]undecan-3-yl)ethoxy)-N-(2-((R)-1-methylpyrrolidin-2-yl)-1H-pyrrolo[3,2-c]pyridin-6-yl)benzamide] | A (Category A: A ≥ 75% degradation) | A (Category A: A ≥ 75% degradation) | A (Category A: A ≥ 75% degradation) | ≤ 0.1 µM
CN1CCC[C@@H]1c1cc2cnc(NC(=O)c3ccc(OCCN4CCC5(CC4)CCN(c4ccc6c(c4)CN(C4CCC(=O)NC4=O)C6=O)CC5)cc3)cc2[nH]1 (stereo partly drawn) [Example 164, 4-(2-(9-(2-(2,6-dioxopiperidin-3-yl)-1-oxoisoindolin-5-yl)-3,9-diazaspiro[5.5]undecan-3-yl)ethoxy)-N-(2-((R)-1-methylpyrrolidin-2-yl)-1H-pyrrolo[3,2-c]pyridin-6-yl)benzamide] | A (Category A: A ≥ 75% degradation) | A (Category A: A ≥ 75% degradation) | A (Category A: A ≥ 75% degradation) | ≤ 0.1 µM
CN1CCC[C@@H]1c1cc2cnc(NC(=O)c3ccc(OCCC4CCN(c5ccc6c(c5)C(=O)N(C5CCC(=O)NC5=O)C6=O)CC4)cc3)cc2[nH]1 (stereo partly drawn) [Example 83, 4-(2-(1-(2-(2,6-dioxopiperidin-3-yl)-1,3-dioxoisoindolin-5-yl)piperidin-4-yl)ethoxy)-N-(2-((R)-1-methylpyrrolidin-2-yl)-1H-pyrrolo[3,2-c]pyridin-6-yl)benzamide] | A (Category A: A ≥ 75% degradation) | A (Category A: A ≥ 75% degradation) | B (Category B: 50% ≤ B < 75% degradation) | ≤ 0.1 µM
CN1CCC[C@@H]1c1cc2cnc(NC(=O)c3ccc(CCCC#Cc4cccc5c4CN(C4CCC(=O)NC4=O)C5=O)c(F)c3)cc2[nH]1 (stereo partly drawn) [Example 93, 4-(5-(2-(2,6-dioxopiperidin-3-yl)-1-oxoisoindolin-4-yl)pent-4-yn-1-yl)-3-fluoro-N-(2-((R)-1-methylpyrrolidin-2-yl)-1H-pyrrolo[3,2-c]pyridin-6-yl)benzamide] | A (Category A: A ≥ 75% degradation) | A (Category A: A ≥ 75% degradation) | A (Category A: A ≥ 75% degradation) | ≤ 0.1 µM
CN1CCC[C@@H]1c1cc2cnc(NC(=O)c3ccc(OCCCC#Cc4cccc5c4CN(C4CCC(=O)NC4=O)C5=O)nc3)cc2[nH]1 (stereo partly drawn) [Example 150, 6-((5-(2-(2,6-dioxopiperidin-3-yl)-1-oxoisoindolin-4-yl)pent-4-yn-1-yl)oxy)-N-(2-((R)-1-methylpyrrolidin-2-yl)-1H-pyrrolo[3,2-c]pyridin-6-yl)nicotinamide] | A (Category A: A ≥ 75% degradation) | A (Category A: A ≥ 75% degradation) | A (Category A: A ≥ 75% degradation) | ≤ 0.1 µM
CN1CCC[C@@H]1c1[nH]c2cc(NC(=O)CCCCCCC#Cc3cccc4c3CN(C3CCC(=O)NC3=O)C4=O)ncc2c1Cl (stereo partly drawn) [Example 13, N-(3-chloro-2-((R)-1-methylpyrrolidin-2-yl)-1H-pyrrolo[3,2-c]pyridin-6-yl)-9-(2-(2,6-dioxopiperidin-3-yl)-1-oxoisoindolin-4-yl) non-8-ynamide] | A (Category A: A ≥ 75% degradation) | A (Category A: A ≥ 75% degradation) | A (Category A: A ≥ 75% degradation) | ≤ 0.1 µM
CN1CCC[C@@H]1c1cc2cnc(NC(=O)c3ccc(-c4cnn(CCOC5CCN(c6cccc(C(=O)N[C@H]7CCC(=O)NC7=O)n6)CC5)c4)cc3)cc2[nH]1 [Example 61, N—((S)-2,6-dioxopiperidin-3-yl)-6-(4-(2-(4-(4-((2-((R)-1-methylpyrrolidin-2-yl)-1H-pyrrolo[3,2-c]pyridin-6-yl)carbamoyl)phenyl)-1H-pyrazol-1-yl)ethoxy)piperidin-1-yl)picolinamide] | A (Category A: A ≥ 75% degradation) | A (Category A: A ≥ 75% degradation) | B (Category B: 50% ≤ B < 75% degradation) | ≤ 0.1 µM
CN1CCC[C@@H]1c1cc2cnc(NC(=O)c3ccc(N4CCC(C#Cc5cccc6c5CN(C5CCC(=O)NC5=O)C6=O)CC4)nc3)cc2[nH]1 (stereo partly drawn) [Example 17, 6-(4-((2-(2,6-dioxopiperidin-3-yl)-1-oxoisoindolin-4-yl)ethynyl)piperidin-1-yl)-N-(2-((R)-1-methylpyrrolidin-2-yl)-1H-pyrrolo[3,2-c]pyridin-6-yl)nicotinamide] | A (Category A: A ≥ 75% degradation) | A (Category A: A ≥ 75% degradation) | A (Category A: A ≥ 75% degradation) | ≤ 0.1 µM
CN1CCC[C@@H]1c1cc2cnc(NC(=O)c3cccc(C4CCN(c5cccc6c5C(=O)N(C5CCC(=O)NC5=O)C6=O)CC4)c3)cc2[nH]1 (stereo partly drawn) [Example 14, 3-(1-(2-(2,6-dioxopiperidin-3-yl)-1,3-dioxoisoindolin-4-yl)piperidin-4-yl)-N-(2-((R)-1-methylpyrrolidin-2-yl)-1H-pyrrolo[3,2-c]pyridin-6-yl)benzamide] | B (Category B: 50% ≤ B < 75% degradation) | A (Category A: A ≥ 75% degradation) | A (Category A: A ≥ 75% degradation) | ≤ 0.1 µM
